Reference: patent US12139729B2, “Neurodegenerative disorders” (priority 2013, dated 2024)
Residues, ends and D or L forms follow the SMILES beside them. No end group written: not given here.

Key:
[1] = tested on: Aβ42; assay: ELISA detection of Aβ42 in cell culture media; assay type: cell-based; details: 1 hour
Description: After 1 hour of treatment, the culture media was collected and diluted to 1:100, using culture media as diluent. Four repeats of each diluted sample were then placed in the plate provided by the ELISA detection kit, from AnaSpec (Fremont, CA, USA). The detection was then carried out following the manufacturer's protocol. Briefly, the sample was incubated for 4 h in presence of 50 μl of detection antibody. The plate was then washed seven times with the washing solution, the samples were then incubated with the 3,3′,5,5′-Tetramethylbenzidine (TMB) provided with the kit for 15 min. after the sample revelation the reaction was stopped with the stop solution and the optical density was read at 450 nm.
Accordingly, using immunodetection, the inventors have determined (i) APP levels and (ii) release of amyloid following administration of T30 (5 uM) and NBP14 (0.5 μM).

[2] = target: T1, α7nAChR (the α7 nicotinic acetylcholine receptor), allosteric site (Rattus norvegicus, UniProt Q05941); assay: [3H] Ivermectin binding assay on PC12 cell membranes
T1 construct: [3H]; host or cells: wild-type PC12 cells
Description: PC12 membranes where obtained to perform binding assays. PC12 cells were grown until confluence on 100 mm plates. Growth medium was removed and ice-cold 50 mM Tris-HCl buffer (pH 7.4) containing 4.5 μg/μ1 aprotinin and 0.1 mM phenylmethylsulphonylfluoride (PMSF) were added. Cells were mechanically detached and pelleted by centrifugation (1040×g) for 4 minutes at 4° C. Pellets were homogenized with a Polytron and centrifuged (13000×g) for 20 minutes at 4° C. The pellets were resuspended in fresh buffer and incubated at 37° C. for 10 minutes to remove endogenous neurotransmitters. The samples were subsequently re-centrifuged. The final pellet was resuspended in buffer and the protein concentration determined using the Bradford Reagent (Sigma-Aldrich, St. Louis, MO). The cell membrane preparation was stored at −80° C.
For the binding with PC12 membranes, each incubation was performed in polystyrene tube (VWR International Ltd; Leicestershire, UK) containing 0.25 ml of membranes diluted in Tris-HCl 50 mM buffer (containing 50 μg of PC12 membranes) with 5 nM [3H] […] Thereafter, samples were filtered through Brandel GB glass fibre filters (MD, USA); pre-soaked in 0.5% polyethylenemine by a Harvester (Brandel; MD, USA). Tubes were washed 3 times with ice cold 50 mM Tris-HCl buffer. Radioactivity in the tubes was counted by scintillation spectrometry using a 300 SL Liquid scintillation counter (Lablogic Systems Limited, UK). Specific binding was determined by subtracting the non-specific (cells treated with Ivermectin 30 μM) value to all the tubes.

[3] = tested on: PC12 cells; assay: AChE release / AChE activity in perfusate of treated PC12 cells (Ellman assay); assay type: cell-based
[4] = target: T2, α7 nicotinic receptor (Rattus norvegicus, UniProt Q05941); assay: Acetylcholine-induced calcium influx (Fluo-8) in PC12 cells; assay type: cell-based
T2 construct: [3H]; host or cells: wild-type PC12 cells
Description: PC12 cells are plated in 200 μl of complete growth medium the day before the experiment in 96 well plates. On the day of the experiment, the Fluo-8 solution (Abcam) is prepared (as provider protocol). Subsequently, 100 μl of growth medium is removed and 100 μl of Fluo-8 solution is added. Treatments with T30 and NBP-14 are added and incubated for 30 minutes in the incubator and 30 minutes room temperature.
After 1 hour, the plate is placed in the fluorescence plate reader (Fluostar). Before reading the fluorescence, acetylcholine (ACh) 100 μM is prepared and placed in the Fluostar injector. For each well, the reading will be formed by a basal fluorescence followed by acetylcholine injection that will induce an increase of calcium via nicotinic receptors. The effects of T30 and NBP-14 are then evaluated.

[5] = tested on: cortical networks in rat brain slices; assay: Voltage-sensitive dye imaging (VSDI) of thalamocortical brain slices; assay type: cell-based, rat (Wistar); details: for T30-induced increase of rise-phase slope (velocity of propagation): n=3
Source text: Using this technique the inventors can obtain comprehensive sets of data on neuronal population activity such as (a) the intensity of the response in any given area, from which (b) the spread of elicited neuronal assemblies can be measured, and from this parameter (c) the velocity of propagation of the activity wave-front from the point of initiation (d) measured as the slope of the spread. Each of these parameters have been measured independently for two experiments carried out so far: i) an investigation of the effects induced by increasing concentrations (0.5, 0.75, 1 & 5 μM) of T30 on cortical population activity and responsiveness, and 2) assessing the antagonistic effects of NBP-14 on a single, relatively high (1 uM), T30 concentration. • Technique used: voltage-sensitive dye imaging (Di-4-ANEPPS) of thalamocortical (TC) p14 rat (Wistar) brain slices. • Stimulation paradigm: 40 Hz (consistent with thalamo-cortical recurrent stimulation) paired pulse stimulation. • Perfusion paradigm: epochs carried out in two phases—for every drug perfusion (say: control, 0.1 uM T30 etc.), the new perfusion was applied and left to perfuse for 15 minutes before starting the recording period (15 minutes also), such that the drug had time to reach its actual concentration and induce its concentration-dependent effects once recording. Meaning one perfusion epoch lasted 30 minutes, with the recording only taking in account the last 15 minutes of its respective perfusion epoch. Detailed Methods Brain Slice Preparation
Male Wistar rats (14-17 day old; 15 individual animals in total) were anaesthetised using isoflurane: 10 mL 100% w/w isoflurane was applied to the cotton bed at the bottom of an anaesthesia chamber (glass box 20×15×15 cm) where rats were then placed for ˜45 seconds until onset of anaesthesia. The hind paw of each anaesthetised rat was pinched to check for appropriate depth of anaesthesia. Once anaesthesia was confirmed, rats were quickly decapitated before immersing the brain in oxygenated ice-cold artificial cerebrospinal fluid (‘slicing’ aCSF in mmol: 120 NaCl, 5 KCl, 20 NaHCO3, 2.4 CaCl2), 2 MgSO4, 1.2 KH2PO4, 10 glucose, 6.7 HEPES salt and 3.3 HEPES acid; pH: 7.1) for 7-8 minutes, the time taken to cut the brain into slices. Para-saggital sections (400 μm thick) were cut from a block of brain containing both Thalamus (VPN) and primary somato-sensory cortex (barrel field) using a Vibratome (Leica VT1000S) and transferred to a bubbler pot containing aCSF at room temperature (‘recording’ aCSF in mmol: 124 NaCl, 3.7 KCl, 26 NaHCO3, 2 CaCl2, 1.3 MgSO4, 1.3 KH2PO4 and 10 glucose; […]), which was identical to that which was used during electrophysiological recordings and VSDI. Slices were left in oxygenated (95% O2-5% CO2) ‘recording’ aCSF to recuperate for at least 1 hour before VSD staining.
Slices were placed in a dark, high humidity chamber filled with aCSF bubbling with 95% O2-5% CO2. The dye solution (4% 0.2 mM styryl dye pyridinium 4-[2-[6-(dibutylamino)-2-naphthalenyl]-ethenyl]-1-(3-sulfopropyl)hydroxide (Di-4-ANEPPS, Invitrogen, Paisley, UK) (Tominaga et al., 2000) in aCSF 46%, fetal bovine serum 46%, DMSO 3.5% and cremophore EL 0.4%) was then applied to the slices as previously described (Badin et al., 2013). When starting VSD recordings, slices were placed in the recording bath on a small piece of filter paper to keep slice alive and was weighed down appropriately using a home-made plastic grid placed atop the slice. Because of the fluorescent VSD, all of the handling of slices during and after staining with Di-4-ANEPPS was carried out in almost complete darkness in order to keep the detrimental effects of photo-toxicity and bleaching to a minimum. VPN (where stimulating electrodes were placed) was identified with respect to distance from the tip of the hippocampus and to the side of the internal capsule. […]

[6] = T30 5 uM + NBP-14 5 nM (1st of 10 values)
[7] = T30 5 uM + NBP-14 7 nM (2nd of 10 values)
[8] = T30 5 uM + NBP-14 9 nM (3rd of 10 values)
[9] = T30 5 uM + NBP-14 10 nM (4th of 10 values)
[10] = T30 5 uM + NBP-14 20 nM (5th of 10 values)
[11] = T30 5 uM + NBP-14 50 nM (6th of 10 values)
[12] = T30 5 uM + NBP-14 70 nM (7th of 10 values)
[13] = T30 5 uM + NBP-14, 9th of 10 values, concentration unclear
[14] = T30 5 uM + NBP-14, 10th of 10 values, concentration unclear

T2 sequence (Q05941 23-502): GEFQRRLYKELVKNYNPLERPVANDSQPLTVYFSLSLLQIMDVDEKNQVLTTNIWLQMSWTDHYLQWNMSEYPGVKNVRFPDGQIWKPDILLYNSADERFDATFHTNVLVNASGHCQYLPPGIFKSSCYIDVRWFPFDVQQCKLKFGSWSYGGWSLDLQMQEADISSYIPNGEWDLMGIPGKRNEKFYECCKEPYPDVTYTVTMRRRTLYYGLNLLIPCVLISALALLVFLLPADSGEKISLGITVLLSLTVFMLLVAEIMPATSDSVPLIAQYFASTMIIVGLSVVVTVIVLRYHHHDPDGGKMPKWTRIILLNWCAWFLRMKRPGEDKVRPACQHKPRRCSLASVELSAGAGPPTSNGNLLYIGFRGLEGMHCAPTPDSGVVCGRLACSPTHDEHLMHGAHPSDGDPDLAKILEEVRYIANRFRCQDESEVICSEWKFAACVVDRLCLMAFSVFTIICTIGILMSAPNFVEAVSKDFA
T1 sequence (Q05941 23-502): as above

Molecule: KAEFHRWSSYMVHWKNQFDHYSKQDRCSDL [T30, reference compound]
- release of Aβ42 compared to control ([1]; T30 (5 uM)): approximately 175%
- % [3H] Ivermectin binding (Mean ± SEM) ([2]; 1 nM competitor, Table 1): 109.16 ± 11.9%
- % [3H] Ivermectin binding (Mean ± SEM) ([2]; 10 nM competitor, Table 1): 116.63 ± 13.25%
- % [3H] Ivermectin binding (Mean ± SEM) ([2]; 100 nM competitor, Table 1): 106.15 ± 8.04%
- % [3H] Ivermectin binding (Mean ± SEM) ([2]; 1 μM competitor, Table 1): 97.41 ± 7.9%
- % [3H] Ivermectin binding (Mean ± SEM) ([2]; 5 μM competitor, Table 1): 80.22 ± 3.81%
- AChE activity, peptide alone ([3]; 10 μM, 1 hour, PC12): 129.10±1.18
- released AChE activity ([3]; T30 5 uM alone, N=3): 169.45%±2.11
- increase of calcium influx ([4]; PC12 cells): about 70%
- calcium influx (acetylcholine control = 100%) ([4]; T30 5 uM alone, ACh 100 μM, N=3): 171.05%±6.21
- maximum decrease in propagation speed (slope of the rise phase) ([5]; 5 μM T30): 3.5 fold
- spread of cortical assemblies ([5]; T30 0.5, 0.75, 1 μM, affected only at 5 uM): not significantly affected
- intensity of fluorescence given off by active pixels ([5]; increasing T30 concentration (0.5-5 μM)): diminishes

Molecule: CSCC[C@@H]1NC(=O)[C@H](Cc2ccc(O)cc2)NC(=O)[C@H](CO)NC(=O)[C@H](CO)NC(=O)[C@H](Cc2c[nH]c3ccccc23)NC(=O)[C@H](CCCNC(=N)N)NC(=O)[C@H](Cc2c[nH]cn2)NC(=O)[C@H](Cc2ccccc2)NC(=O)[C@H](CCC(=O)O)NC(=O)[C@H](C)NC(=O)[C@H](CCCCN)NC(=O)[C@H](Cc2c[nH]c3ccccc23)NC(=O)[C@H](Cc2c[nH]cn2)NC(=O)[C@H](C(C)C)NC1=O [Cyclic T14] (cyclo(AEFHRWSSYMVHWK))
- release of Aβ42 in presence of T30 and NBP-14 ([1]; T30 (5 uM) + NBP14 (0.5 μM)): close to control
- % [3H] Ivermectin binding (Mean ± SEM) ([2]; 100 nM competitor, Table 2, N = 6): 98.10 ± 3.28%
- % [3H] Ivermectin binding (Mean ± SEM) ([2]; 200 nM competitor, Table 2): 80.81 ± 4.37%
- % [3H] Ivermectin binding (Mean ± SEM) ([2]; 500 nM competitor, Table 2): 79.72 ± 6.76%
- % [3H] Ivermectin binding (Mean ± SEM) ([2]; 700 nM competitor, Table 2): 62.26 ± 17.63%
- % [3H] Ivermectin binding (Mean ± SEM) ([2]; 1 μM competitor, Table 2): 29.006 ± 8.23%
- % [3H] Ivermectin binding (Mean ± SEM) ([2]; 2 μM competitor, Table 2): 13.46 ± 10.40%
- AChE activity, T14 combined with Cyclic T14 ([3]; T14 10 μM + Cyclic T14 100 nM, 1 hour): 112.30±1.39
- released AChE activity, T30 + NBP-14 [3, 6]: 130.73±1.84%
- released AChE activity, T30 + NBP-14 [3, 7]: 111.68±2.26%
- released AChE activity, T30 + NBP-14 [3, 8]: 92.78±0.99%
- released AChE activity, T30 + NBP-14 [3, 9]: 82.56±2.38%
- released AChE activity, T30 + NBP-14 [3, 10]: 68.90±0.92%
- released AChE activity, T30 + NBP-14 [3, 11]: 65.12±1.32%
- released AChE activity, T30 + NBP-14 [3, 12]: 61.04±0.97%
- released AChE activity, T30 + NBP-14 ([3]; T30 5 uM + NBP-14, 8th of 10 values, concentration unclear): 79.43±1.69%
- released AChE activity, T30 + NBP-14 [3, 13]: 83.91±1.24%
- released AChE activity, T30 + NBP-14 [3, 14]: 89.55±1.25%
- concentration range protective against AChE compensatory effects ([3]; T30 5 uM, FIG. 14): high nanomolar concentrations
- calcium influx, T30 + NBP-14 [4, 6]: 134.2497±6.85%
- calcium influx, T30 + NBP-14 [4, 7]: 120.8612±8.65%
- calcium influx, T30 + NBP-14 [4, 8]: 113.9162±8.82%
- calcium influx, T30 + NBP-14 [4, 9]: 140.776±12.16%
- calcium influx, T30 + NBP-14 [4, 10]: 115.83±7.67%
- calcium influx, T30 + NBP-14 [4, 11]: 110.3213±13.21%
- calcium influx, T30 + NBP-14 [4, 12]: 125.9596±0.1%
- calcium influx, T30 + NBP-14 ([4]; T30 5 uM + NBP-14, 8th of 10 values, only 9 concentrations printed (.. 70, 1000, 5000 nM), concentration unclear): 99.85±0.32%
- calcium influx, T30 + NBP-14 [4, 13]: 115.1942±9.84%
- calcium influx, T30 + NBP-14 [4, 14]: 79.99±14.04%
- concentration range protective against T30-induced calcium influx ([4]; T30 5 uM, FIG. 13): low nanomolar range
- modulatory effects of NBP-14 on its own [5]: inert
- modulatory effects of T30 on neuronal populations under NBP-14 ([5]; 300 nM NBP-14, T30 1000 nM): reduced back to control levels
- T30-induced increase of rise-phase slope (velocity of propagation) ([5]; T30 1 μM + 100 nM NBP-14 perfusion): slowed down
- T30-induced increase of rise-phase slope (velocity of propagation) ([5]; T30 1 μM + 300 nM NBP-14 perfusion): reversed back to baseline levels
